# Measured values published in patent publication US12662469B2 (SIRONAX LTD, priority 2018, dated 2026).
# Tested on: Cell Necrosis
# Experiment: Cell necrosis assay / cell viability assay (necrosis inhibitor activity)
# Format: cell-based
# Conditions: not given
row,SMILES,EC50 [nM]
1,"CN(C)CCC1Oc2cc(F)c(OC3CN(C(=O)N4N=CC[C@H]4c4cc(F)cc(F)c4)C3)cc2NC1=O (stereo partly drawn) [Compound 249, 6-((1-((S)-5-(3,5-difluorophenyl)-4,5-dihydro-1H-pyrazole-1-carbonyl)azetidin-3-yl)oxy)-2-(2-(dimethylamino)ethyl)-7-fluoro-2H-benzo[b][1,4]oxazin-3(4H)-one]",1 to 1000

# Same assay, conditions: necrosis inhibitor activity; EC data for 14-191 extrapolated; read-out: EC50
row,SMILES,EC50 [nM]
1,O=C(N1CC(Oc2scc3c(=O)[nH]cnc23)C1)N1N=CCC1c1cc(F)cc(F)c1 (stereo not shown) [Compound 169],1 to 1000
2,O=C(N1CC(Oc2ccc3cc[nH]c3c2)C1)N1N=CCC1c1cc(F)cc(F)c1 (stereo not shown) [Compound 177],1 to 1000
3,"C[C@H]1CN(c2ncc(F)cn2)CCN1C(=O)N1N=CCC1c1ccccc1 (stereo in doubt) [Compound 111A, (S)-(4-(5-fluoropyrimidin-2-yl)-2-methylpiperazin-1-yl)(5-phenyl-4,5-dihydro-1H-pyrazol-1-yl)methanone]",1 to 1000
4,"O=C(N1CC(Cc2ccc(F)cc2F)C1)N1N=CCC1c1ccccc1 (stereo not shown) [Compound 50, (3-(2,4-difluorobenzyl)azetidin-1-yl)(5-phenyl-4,5-dihydro-1H-pyrazol-1-yl)methanone]",1 to 1000
5,"O=C(N1CC(=Cc2ccccc2)C1)N1N=CCC1c1ccccc1 (stereo not shown) [Compound 36, (3-benzylideneazetidin-1-yl)(5-phenyl-4,5-dihydro-1H-pyrazol-1-yl)methanone]",1 to 1000
6,"O=C(N1CC[C@@H](Oc2ncc(F)cn2)C1)N1N=CCC1c1ccccc1 (stereo partly drawn) [Compound 34, ((R)-3-((5-fluoropyrimidin-2-yl)oxy)pyrrolidin-1-yl)(5-phenyl-4,5-dihydro-1H-pyrazol-1-yl)methanone]",1000 to 10000
7,CNC(=O)c1nc(OC2CN(C(=O)N3N=CCC3c3cc(F)cc(F)c3)C2)sc1F (stereo not shown) [Compound 170],1 to 1000
8,"O=C(N1CCN(c2ncccn2)CC1)N1N=CCC1c1ccccc1 (stereo not shown) [Compound 84, (5-phenyl-4,5-dihydro-1H-pyrazol-1-yl)(4-(pyrimidin-2-yl)piperazin-1-yl)methanone]",1 to 1000
9,"O=C(N1CCc2ccccc2C1)N1N=CCC1c1ccccc1 (stereo not shown) [Compound 15, (3,4-dihydroisoquinolin-2(1H)-yl)(5-phenyl-4,5-dihydro-1H-pyrazol-1-yl)methanone]",1000 to 10000
10,"O=C(N1CC(Oc2ccc(O)cc2)C1)N1N=CCC1c1ccccc1 (stereo not shown) [Compound 70, (3-(4-hydroxyphenoxy)azetidin-1-yl)(5-phenyl-4,5-dihydro-1H-pyrazol-1-yl)methanone]",1000 to 10000
11,"O=C(N1CCC(Cc2ccccc2)C1)N1N=CCC1c1ccccc1 (stereo not shown) [Compound 17, (3-benzylpyrrolidin-1-yl)(5-phenyl-4,5-dihydro-1H-pyrazol-1-yl)methanone]",1 to 1000
12,"C#Cc1cc(OC2CN(C(=O)N3N=CCC3c3ccccc3)C2)ncn1 (stereo not shown) [Compound 125, (3-((6-ethynylpyrimidin-4-yl)oxy)azetidin-1-yl)(5-phenyl-4,5-dihydro-1H-pyrazol-1-yl)methanone]",1000 to 10000
13,"O=C(N1CC[C@H](Oc2ccccc2)C1)N1N=CCC1c1ccccc1 (stereo partly drawn) [Compound 27A, ((S)-3-phenoxypyrrolidin-1-yl)(S-phenyl-4,5-dihydro-1H-pyrazol-1-yl)methanone]",1000 to 10000
14,"O=C(N1CC(Cc2ccc(Cl)cc2F)C1)N1N=CCC1c1ccccc1 (stereo not shown) [Compound 51, (3-(4-chlor-2-fluorobenzyl)azetidin-1-yl)(5-phenyl-4,5-dihydro-1H-pyrazol-1-yl)methanone]",1 to 1000
15,"O=C(N1CC(=Cc2ccc(F)cc2)C1)N1N=CCC1c1ccccc1 (stereo not shown) [Compound 46, (3-(4-fluorobenzylidene)azetidin-1-yl)(5-phenyl-4,5-dihydro-1H-pyrazol-1-yl)methanone]",1 to 1000
16,"O=C(N1CC(Oc2ccc(F)cc2F)C1)N1N=CCC1c1ccccc1 (stereo not shown) [Compound 63, (3-(2,4-difluorophenoxy)azetidin-1-yl)(5-phenyl-4,5-dihydro-1H-pyrazol-1-yl)methanone]",1 to 1000
17,"O=C(N1CCN(c2ccc(F)cn2)CC1)N1N=CCC1c1ccccc1 (stereo not shown) [Compound 85, (4-(5-fluoropyridin-2-yl)piperazin-1-yl)(5-phenyl-4,5-dihydro-1H-pyrazol-1-yl)methanone]",1 to 1000
18,"O=C(N1CC[C@H](Oc2ccccc2)C1)N1N=CCC1c1ccccc1 (stereo partly drawn) [Compound 27B, ((S)-3-phenoxypyrrolidin-1-yl)(S-phenyl-4,5-dihydro-1H-pyrazol-1-yl)methanone]",1 to 1000
19,CNC(=O)c1cc(OC2CN(C(=O)N3N=CCC3c3cc(F)cc(F)c3)C2)ccc1F (stereo not shown) [Compound 162],1 to 1000
20,"O=C(N1CC[C@@H](Oc2ccc(F)cc2)C1)N1N=CCC1c1ccccc1 (stereo partly drawn) [Compound 33, ((R)-3-(4-fluorophenoxy)pyrrolidin-1-yl)(5-phenyl-4,5-dihydro-1H-pyrazol-1-yl)methanone]",1 to 1000
21,Cn1c(OC2CN(C(=O)N3N=CCC3c3cc(F)cc(F)c3)C2)cccc1=O (stereo not shown) [Compound 188],1 to 1000

# Same assay, conditions: necrosis inhibitor activity; compounds outside 14-191; read-out: EC50
row,SMILES,EC50 [nM]
1,"O=C(N1CC(Oc2ccc(O)nc2)C1)N1N=CCC1c1cc(F)cc(F)c1 (stereo not shown) [Compound 217, (5-(3,5-difluorophenyl)-4,5-dihydro-1H-pyrazol-1-yl)(3-((6-hydroxypyridin-3-yl)oxy)115zetidine-1-yl)methanone]",1 to 1000
2,N#Cc1cccc([C@@H]2CC=NN2C(=O)N2CC(Oc3cc4c(cc3F)OCC(=O)N4)C2)c1 [Compound 195],1 to 1000
3,"N#Cc1cc(OC2CN(C(=O)N3N=CC[C@H]3c3cc(F)cc(F)c3)C2)ncn1 [Compound 215, (S)-6-((1-(5-(3,5-difluorophenyl)-4,5-dihydro-1H-pyrazole-1-carbonyl)115zetidine-3-yl)oxy)pyrimidine-4-carbonitrile]",1 to 1000
4,"CNc1nc(OC2CN(C(=O)N3N=CC[C@H]3c3cc(F)cc(F)c3)C2)c(F)cc1F [Compound 262, (S)-(3-((3,5-difluoro-6-(methylamino)pyridin-2-yl)oxy)azetidin-1-yl)(5-(3,5-difluorophenyl)-4,5-dihydro-1H-pyrazol-1-yl)methanone]",1 to 1000
5,"O=C1COc2cc(F)c(OC3CN(C(=O)N4N=CC[C@H]4c4cc(F)cc(F)c4)C3)cc2N1 [Compound 193, (S)-6-((1-(5-(3,5-difluorophenyl)-4,5-dihydro-1H-pyrazole-1-carbonyl)azetidin-3-yl)oxy)-7-fluoro-2H-benzo[b][1,4]oxazin-3(4H)-one]",1 to 1000
6,"O=C1CCc2cc(F)c(OC3CN(C(=O)N4N=CC[C@H]4c4cc(F)cc(F)c4)C3)cc2N1 [Compound 202, (S)-7-((1-(5-(3,5-difluorophenyl)-4,5-dihydro-1H-pyrazole-1-carbonyl)azetidin-3-yl)oxy)-6-fluoro-3,4-dihydroquinolin-2(1H)-one]",1 to 1000
7,"O=C(Nc1nc(N2CCN(C(=O)N3N=CC[C@H]3c3cc(F)cc(F)c3)CC2)ncc1F)C1CC1 [Compound 226, (S)—N-(2-(4-(5-(3,5-difluorophenyl)-4,5-dihydro-1H-pyrazole-1-carbonyl)piperazin-1-yl)-5-fluoropyrimidin-4-yl)cyclopropanecarboxamide]",1 to 1000
8,O=C(N1CC(Oc2ccc3cn[nH]c3c2)C1)N1N=CC[C@H]1c1cc(F)cc(F)c1 [Compound 207],1 to 1000
9,"CC(=O)N(C)c1cccc(OC2CN(C(=O)N3N=CCC3c3cc(F)cc(F)c3)C2)c1 (stereo not shown) [Compound 230, N-(3-((1-(5-(3,5-difluorophenyl)-4,5-dihydro-1H-pyrazole-1-carbonyl)azetidin-3-yl)oxy)phenyl)-N-methylacetamide]",1 to 1000
10,"O=C(N1Cc2ccccc2C1)N1N=CCC1c1ccccc1 (stereo not shown) [Compound 13, Isoindolin-2-yl(5-phenyl-4,5-dihydro-1H-pyrazol-1-yl)methanone]",1 to 1000
11,"CC(C)CC(=O)Nc1nc(N2CCN(C(=O)N3N=CC[C@H]3c3cc(F)cc(F)c3)CC2)ncc1F [Compound 291, (S)—N-(2-(4-(5-(3,5-difluorophenyl)-4,5-dihydro-1H-pyrazole-1-carbonyl)piperazin-1-yl)-5-fluoropyrimidin-4-yl)-3-methylbutanamide]",1 to 1000
12,"O=C(N1CC(Oc2cc3[nH]nc(F)c3cc2F)C1)N1N=CCC1c1ccccc1 (stereo not shown) [Compound 379, (3-((3,5-difluoro-1H-indazol-6-yl)oxy)azetidin-1-yl)(5-phenyl-4,5-dihydro-1H-pyrazol-1-yl)methanone]",1 to 1000
13,"O=C(N1CC(Oc2ccc3cc[nH]c3c2)C1)N1N=CC[C@H]1c1cc(F)cc(F)c1 [Compound 223, (S)-(3-((1H-indol-6-yl)oxy)azetidin-1-yl)(5-(3,5-difluorophenyl)-4,5-dihydro-1H-pyrazol-1-yl)methanone]",1 to 1000
14,"N#Cc1cc(OC2CN(C(=O)N3N=CC[C@H]3c3cc(F)cc(F)c3)C2)ccc1F [Compound 236, (S)-5-((1-(5-(3,5-difluorophenyl)-4,5-dihydro-1H-pyrazole-1-carbonyl)azetidin-3-yl)oxy)-2-fluorobenzonitrile]",1 to 1000
15,"O=C1Cc2cnc(N3CCN(C(=O)N4N=CC[C@H]4c4cc(F)cc(F)c4)CC3)nc2N1 [Compound 386, (S)-2-(4-(5-(3,5-difluorophenyl)-4,5-dihydro-1H-pyrazole-1-carbonyl)piperazin-1-yl)-5,7-dihydro-6H-pyrrolo[2,3-d]pyrimidin-6-one]",1 to 1000
16,"N#Cc1cc(F)ccc1C=C1CN(C(=O)N2N=CC[C@H]2c2cc(F)cc(F)c2)C1 [Compound 321, (S)-2-((1-(5-(3,5-difluorophenyl)-4,5-dihydro-1H-pyrazole-1-carbonyl)azetidin-3-ylidene)methyl)-5-fluorobenzonitrile]",1 to 1000
17,"N#Cc1cccc([C@@H]2CC=NN2C(=O)N2CC(=Cc3cc4c(cc3F)CC(=O)N4)C2)c1 [Compound 373, (S)-3-(1-(3-((5-fluoro-2-oxoindolin-6-yl)methylene)azetidine-1-carbonyl)-4,5-dihydro-1H-pyrazol-5-yl)benzonitrile]",1 to 1000
18,"N#Cc1cnc2ccc(O[C@@H]3CCN(C(=O)N4N=CC[C@H]4c4cc(F)cc(F)c4)C3)nn12 [Compound 240, 6-(((R)-1-((S)-5-(3,5-difluorophenyl)-4,5-dihydro-1H-pyrazole-1-carbonyl)pyrrolidin-3-yl)oxy)imidazo[1,2-b]pyridazine-3-carbonitrile]",1 to 1000
